Source: paper PMC9322071, “Computer-Aided Design and Synthesis of (Functionalized quinazoline)–(α-substituted coumarin)–arylsulfonate Conjugates against Chikungunya Virus” (International Journal of Molecular Sciences, 2022)
Read-outs that look alike come from different tables or passages of the source.

What was measured:
[1] = Cytotoxicity assay (metabolic activity of compound-treated cells); conditions: African green monkey
[2] = Lipophilicity by shake-flask method
[3] = system: CHIKV Indian Ocean strain 899; experiment: Anti-CHIKV CPE assay on Vero cells; conditions: for EC50: Chikungunya virus, Vero; for SI: ratio of CC50 to EC50
CHIKV [4] = system: CHIKV; set-up: method as in PMID 23275491; conditions: CHIKV inhibition; cited from earlier work
CHIKV isolate = CHIKV isolate replication; cited from earlier work
[5] = cited from earlier work
CHIKV [6] = conditions: cited from earlier work

SMILES | CC50 [1] | logP [2] | EC50 [3] | SI [3] | also measured
O=c1oc2cc(OS(=O)(=O)c3ccccc3)ccc2cc1CSc1nc(Nc2ccccc2)c2ccccc2n1 [Compound 2b, 2′-Oxo-3′-[([4-(phenylamino)quinazolin-2-yl]thio)methyl]-2H-chromen-7′-yl Benzenesulfonate] | 72.3 µM | 5.27 | 3.84 µM | 18.8 | fold more potent than quinazolinone conjugate 10a ([3]; EC50 comparison 2b vs 10a): 2.0 times; fold improvement of SI in comparison with 10a ([3]; SI comparison 2b vs 10a): 3.68 times
O=c1oc2cc(OS(=O)(=O)c3ccccc3)ccc2cc1CSc1nc2ccccc2c(=O)[nH]1 [Compound 10a, 2′-Oxo-3′-([(4-oxo-3,4-dihydroquinazolin-2-yl)thio]methyl)-2H-chromen-7′-yl Benzenesulfonate] | 40.1 µM | 3.52 | 7.84 µM | 5.11 | –
COc1ccc(S(=O)(=O)Oc2ccc3cc(CSc4nc5ccccc5c(=O)[nH]4)c(=O)oc3c2)cc1 [Compound 10b, 2′-Oxo-3′-([(4-oxo-3,4-dihydroquinazolin-2-yl)thio]methyl)-2H-chromen-7′-yl 4″-Methoxybenzenesulfonate] | – | 3.45 | > 186 µM | – | –
O=c1oc2cc(OS(=O)(=O)c3ccc(F)cc3)ccc2cc1CSc1nc2ccccc2c(=O)[nH]1 [Compound 10c, 2′-Oxo-3′-([(4-oxo-3,4-dihydroquinazolin-2-yl)thio]methyl)-2H-chromen-7′-yl 4″-Fluorobenzenesulfonate] | 59.7 µM | 3.68 | 6.46 µM | 9.24 | fold more potent against CHIKV than β-substituted isomer 11 ([3]; EC50 comparison 10c vs 11): ~ 3 times; fold improvement of SI in comparison with β-11 ([3]; SI comparison 10c vs 11): 5.7 times
O=c1oc2cc(OS(=O)(=O)c3ccc(Br)cc3)ccc2cc1CSc1nc2ccccc2c(=O)[nH]1 [Compound 10d, 2′-Oxo-3′-([(4-oxo-3,4-dihydroquinazolin-2-yl)thio]methyl)-2H-chromen-7′-yl 4″-Bromobenzenesulfonate] | 62.6 µM | 3.94 | 18.4 µM | 3.40 | –
O=c1oc2cc(OS(=O)(=O)c3ccccc3[N+](=O)[O-])ccc2cc1CSc1nc2ccccc2c(=O)[nH]1 [Compound 10e, 2′-Oxo-3′-([(4-oxo-3,4-dihydroquinazolin-2-yl)thio]methyl)-2H-chromen-7′-yl 2″-Nitrobenzenesulfonate] | 64.3 µM | 3.48 | 12.7 µM | 5.06 | –
O=c1oc2cc(OS(=O)(=O)c3ccc([N+](=O)[O-])cc3)ccc2cc1CSc1nc2ccccc2c(=O)[nH]1 [Compound 10f, 2′-Oxo-3′-([(4-oxo-3,4-dihydroquinazolin-2-yl)thio]methyl)-2H-chromen-7′-yl 4″-Nitrobenzenesulfonate] | – | 3.43 | > 186 µM | – | –
COC(=O)C[C@](O)(CCC(C)(C)O)C(=O)O[C@@H]1C(OC)=C[C@]23CCCN2CCc2cc4c(cc2[C@H]13)OCO4 [Harringtonine, harringtonine] | – | – | – | – | EC50 (CHIKV [4]): 0.24 µM
Cc1ccc(C(=O)Nc2ccc(S(=O)(=O)O)c3cc(S(=O)(=O)O)cc(S(=O)(=O)O)c23)cc1NC(=O)c1cccc(NC(=O)Nc2cccc(C(=O)Nc3cc(C(=O)Nc4ccc(S(=O)(=O)O)c5cc(S(=O)(=O)O)cc(S(=O)(=O)O)c45)ccc3C)c2)c1 [Suramin] | – | – | – | – | EC50 (CHIKV isolate): ~80 µM; CC50 [5]: > 5000 µM
O=C(NN=Cc1ccccc1)C1CC1 [benzylidene(cyclopropane)carbohydrazide] | – | – | – | – | EC50 (CHIKV [6]; CHIKV-induced CPE): 5 µM; SI (CHIKV [6]): 14
